The record followed here is the NIST ThermoML archive (doi:10.1016/j.jct.2012.06.009).

± gives the expanded uncertainty stated by the source.

This data set can be described thus: activity coefficient (dimensionless); of the first substance listed, at infinite dilution; xn = mol fraction of the nth substance listed. Conditions: 101 kPa, Liquid, Chromatography, x1 = 0.

Take `ClC=C(Cl)Cl` [trichloroethene] + CCCCCCCCCCCCCC(=O)O: the activity coefficient (314.1 K) worked out at 0.847 ± 0.07; the activity coefficient (314.24 K) was determined as 0.843 ± 0.07; the activity coefficient (333.26 K) is 0.842 ± 0.07; the activity coefficient (333.38 K) came out at 0.838 ± 0.07; the activity coefficient (353.25 K) turned out to be 0.842 ± 0.07; the activity coefficient (353.3 K) came to 0.824 ± 0.069.

With `ClC=C(Cl)Cl` [trichloroethene] + CCCCCCCCCCCCCCCC(=O)O, the activity coefficient is, setting by setting: (340.19 K) 0.831 ± 0.069; (348.01 K) 0.826 ± 0.069; (358.22 K) 0.831 ± 0.069.

`ClC(Cl)Cl` [trichloromethane] + CCCCCCCCCC(=O)O: the activity coefficient (314.1 K) worked out at 0.823 ± 0.069; the activity coefficient (314.24 K) amounted to 0.846 ± 0.07; the activity coefficient (333.26 K) stood at 0.85 ± 0.071; the activity coefficient (333.38 K) is 0.827 ± 0.069; the activity coefficient (353.3 K) was determined as 0.825 ± 0.069.

On to `ClC(Cl)Cl` [trichloromethane] + CCCCCCCCCCCC(=O)O, for which the activity coefficient amounted to 0.81 ± 0.068 (314.1 K); 0.81 ± 0.068 (314.24 K); 0.832 ± 0.069 (333.26 K); 0.818 ± 0.068 (333.38 K); 0.839 ± 0.07 (353.3 K).

On to `ClC(Cl)Cl` [trichloromethane] + CCCCCCCCCCCCCC(=O)O, for which the activity coefficient by setting is: (314.1 K) 0.743 ± 0.063; (314.24 K) 0.743 ± 0.063; (333.26 K) 0.739 ± 0.063; (333.38 K) 0.74 ± 0.063; (353.25 K) 0.746 ± 0.064; (353.3 K) 0.727 ± 0.062.

With `ClC(Cl)Cl` [trichloromethane] + CCCCCCCCCCCCCCCC(=O)O, the activity coefficient (340.19 K) stood at 0.748 ± 0.063, the activity coefficient (348.01 K) came out at 0.739 ± 0.063 and the activity coefficient (358.22 K) came to 0.759 ± 0.064.
